Measurements reported in US20120178626A1, “SYNERGISTIC HERBICIDAL COMPOSITION CONTAINING PROPYZAMIDE AND BENFLURALIN” (DOW AGROSCIENCES LLC, priority 2011, published 2012).

Legend:
Experiment in all cases: Field trial, percent visual weed control, soil-applied tank mixes
Assay type in all cases: in vivo
Conditions in all cases: applied to soil
[1] = system: Shepherds purse (Capsella bursa-pastoris, CAPBP)
Description: (§1) These trials were conducted under field conditions in USA. Trial sites were located in California. The trials were conducted using normal small plot research methodology. Trial plots were between 2 to 4.5 meters (m) wide by 5.5 to 10 m long. All treatments were applied using a randomized complete block trial design with 4 replications per treatment. The trial sites had naturally occurring populations of weeds. The weed spectrum included, but was not limited to, redroot pigweed (Amaranthus retroflexus, AMARE), Shepherds purse (Capsella bursa-pastoris, CAPBP) and Venice mallow (Hibiscus trionum, HIBTR). Treatments consisted of tank mixes of the commercial formulations of propyzamide and benfluralin applied in water directly to the soil. The application volumes were between 93.5 to 187 liters per hectare (L/ha). All application were made using precision gas backpack hand sprayers using a 2 or 3 m boom using flat fan (80° or 110°) nozzles to broadcast the treatments on the soil.
(§2) The treated plots and control plots were rated blind at various intervals after application. Ratings were based of Percent (%) Visual weed control, where 0 corresponds to no control and 100 corresponds to complete control.
(§3) Data was collected for all trials and analyzed using various statistical methods.
(§4) Colby's equation was used to determine the herbicidal effects expected from the mixtures (Colby, S. R. Calculation of the synergistic and antagonistic response of herbicide combinations. Weeds 1967 15, 20-22).
(§5) The following equation was used to calculate the expected activity of mixtures containing two active ingredients, A and B:
(§6) A=observed efficacy of active ingredient A at the same concentration as used in the mixture;
(§7) B=observed efficacy of active ingredient B at the same concentration as used in the mixture.

[2] = system: Venice mallow (Hibiscus trionum, HIBTR)
Description: as §1, §2, §3, §4, §5, §6, §7

[3] = system: redroot pigweed (Amaranthus retroflexus, AMARE)
Description: as §1, §2, §3, §4, §5, §6, §7

[4] = propyzamide 0, benfluralin 340 g ai/ha, 50 Days After Application
[5] = propyzamide 210 g ai/ha, benfluralin 0, 50 Days After Application

CCCCN(CC)c1c([N+](=O)[O-])cc(C(F)(F)F)cc1[N+](=O)[O-] [Benfluralin, N-butyl-N-ethyl-2,6-dinitro-4-(trifluoromethyl)-benzenamine]
% Weed Control CAPBP, Ob (percent control observed) ([1]; propyzamide 0, benfluralin 670 g ai/ha, 50 Days After Application): 3% | % Weed Control HIBTR, Ob (percent control observed) [2, 4]: 0% | % Weed Control AMARE, Ob (percent control observed) [3, 4]: 0%

C#CC(C)(C)NC(=O)c1cc(Cl)cc(Cl)c1 [Propyzamide, 3,5-dichloro-N-(1,1-dimethyl-2-propynyl)-benzamide]
% Weed Control CAPBP, Ob (percent control observed) [1, 5]: 20% | % Weed Control HIBTR, Ob (percent control observed) [2, 5]: 20% | % Weed Control AMARE, Ob (percent control observed) [3, 5]: 13%
